This note sets out measurements from PubChem BioAssay (NCI).

Values joined by “and” are separate entries in the source; they are usually repeats but may differ in a detail not shown here. Equal entries are not always repeated.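 Briefly, cells in 96-well plates were exposed to five compound concentrations for 48 h, and endpoints were estimated by linear interpolation. GI50 marks 50% less growth. Definition used: TGI = concentration required for complete inhibition of growth.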

The first assay has as its system OVCAR-3 ovarian. The assay can be described thus: inhibition of tumour cell growth, NCI panel, 48 h.
Molecule `O=NNc1ccc2ccccc2n1` returned a TGI greater than 100 µM.
For the molecule `O=C1NC(=S)S/C1=C/c1ccc2c(c1)OCO2`, the GI50 was 65.1 µM and the TGI was greater than 100 µM.
In turn, `O=C(O)CCCc1ccc2ccc3ccccc3c2c1` gave a TGI greater than 100 µM.
`CCCC1(CC(=O)O)OCCc2c1[nH]c1ccccc21` (configuration not stated) returned a TGI greater than 100 µM.
On the same count and under the same terms, the value for `CN(C)Cc1cc(C(F)(F)F)ccc1C(O)(c1ccccc1)c1ccccc1` was greater than 100 µM; that for `CSC(SC)(C(=O)O)c1cc(-c2c(Cl)cccc2Cl)no1` was greater than 100 µM.
In the case of `COc1ccc2nc3cc(Cl)ccc3c(Sc3ccc([N+](=O)[O-])cc3C)c2c1`, the TGI is greater than 100 µM.

The next assay deals with OVCAR-5 ovarian. Nature of the assay: inhibition of tumour cell growth, NCI panel, 48 h.
As to `CCN1C(=O)c2ccc3c4c(ccc(c24)C1=O)C(=O)N(CCCNCc1ccccc1OC)C3=O`, the GI50 was 1.35 µM and the TGI worked out at 3.74 µM.
For the molecule `O=C(/C=C/c1ccccc1)Nc1ncc(Cc2ccccc2Cl)s1`, the GI50 was 0.511 µM and the TGI is greater than 100 µM.
The matching figures for `CN(c1ccc(NC(=O)Nc2c(Cl)cccc2Cl)cc1)c1ccnc(Nc2cccc(CS(C)(=O)=O)c2)n1`: 6.2 µM and greater than 19.5 µM.
For `CN(C)C/C=C/C(=O)Nc1ccc(C(=O)N[C@@]2(C)CCC[C@@H](Nc3ncc(Cl)c(-c4c[nH]c5ccccc45)n3)C2)nc1`, the GI50 was 0.0213 µM and the TGI amounted to 1.24 µM.
In turn, `CC(C)C(O)(C(C)C)C(C)C` gave a TGI greater than 100 µM.
Consider `CCN(CC)CCNC(Cc1ccccc1)c1ccc(OCc2ccccc2)cc1` (configuration not stated), for which the GI50 is 7.02 µM and the TGI was 22.4 µM.
On the same counts, the results for `Cn1c(Cl)c(/C=C2/C(=O)Nc3ccccc32)c2ccccc21` are 3.85 µM and 27.8 µM.
As for `O=C1C(=O)c2ccccc2C(O)=C1C(C1=C(O)c2ccccc2C(=O)C1=O)c1ccc(Cl)cc1`, the TGI worked out at 17.3 µM.
In the case of `C=C(C)[C@@H]1CC[C@]2(COCCCN)CC[C@]3(C)[C@H](CC[C@@H]4[C@@](C)(CCCNCCCN)[C@H](C(=C)C)CC[C@]43C)[C@@H]12`, the GI50 was 1.71 µM and the TGI came to 3.12 µM.
Consider `O=C(O)CSCCc1ccccc1`, for which the TGI is greater than 100 µM.
As to `CCOC1C(Br)Cn2c(=O)c3cc4ccccc4cc3c(=O)n2C1C` (configuration not stated), the TGI is greater than 100 µM.
Same read-out and setting: the value for `O=NNc1ccc2ccccc2n1` was greater than 100 µM.
As for `O=C1NC(=S)S/C1=C/c1ccc2c(c1)OCO2`, the GI50 is greater than 100 µM and the TGI is greater than 100 µM.
Molecule `O=C(O)CCCc1ccc2ccc3ccccc3c2c1` registered a TGI greater than 100 µM.
The molecule `CCCC1(CC(=O)O)OCCc2c1[nH]c1ccccc21` (configuration not stated) showed a TGI greater than 100 µM.
Take `CN(C)Cc1cc(C(F)(F)F)ccc1C(O)(c1ccccc1)c1ccccc1`: the TGI was found to be 36.9 µM.
Turning to `CSC(SC)(C(=O)O)c1cc(-c2c(Cl)cccc2Cl)no1`, the TGI was greater than 100 µM.
For `COc1ccc2nc3cc(Cl)ccc3c(Sc3ccc([N+](=O)[O-])cc3C)c2c1`, the TGI was greater than 100 µM.

The next assay deals with PC-3 prostate. Nature of the assay: inhibition of tumour cell growth, NCI panel, 48 h.
As to `CCN1C(=O)c2ccc3c4c(ccc(c24)C1=O)C(=O)N(CCCNCc1ccccc1OC)C3=O`, the GI50 was 0.613 µM and the TGI came to 5.18 µM.
On the same counts, the results for `O=C(/C=C/c1ccccc1)Nc1ncc(Cc2ccccc2Cl)s1` are 0.409 µM and greater than 100 µM.
On to `CN(c1ccc(NC(=O)Nc2c(Cl)cccc2Cl)cc1)c1ccnc(Nc2cccc(CS(C)(=O)=O)c2)n1`, for which the GI50 was 1.56 µM and the TGI came to 8.6 µM.
Turning to `CCCCCCCCCCCCCCCCCCOC[C@H](COP(=O)(O)O[C@H]1[C@H](O)[C@@H](O)[C@H](O)C[C@H]1O)OC`, the GI50 is 7.44 µM and 2.94 µM; the TGI is 43.3 µM and 14.1 µM.
In the case of `CN(C)C/C=C/C(=O)Nc1ccc(C(=O)N[C@@]2(C)CCC[C@@H](Nc3ncc(Cl)c(-c4c[nH]c5ccccc45)n3)C2)nc1`, the GI50 is less than 0.01 µM and the TGI was 0.0833 µM.
`CC(C)C(O)(C(C)C)C(C)C` registered a TGI greater than 100 µM.
Turning to `COc1ccc2c(c1)C(=O)CCc1cc(OC)c(OC)c(OC)c1-2`, the GI50 was less than 0.01 µM and the TGI is greater than 100 µM.
Take `CCN(CC)CCNC(Cc1ccccc1)c1ccc(OCc2ccccc2)cc1` (configuration not stated): the GI50 was 3.68 µM and the TGI was found to be 15.7 µM.
Turning to `Cn1c(Cl)c(/C=C2/C(=O)Nc3ccccc32)c2ccccc21`, the GI50 was 0.859 µM and the TGI was greater than 33.7 µM.
Molecule `O=C1C(=O)c2ccccc2C(O)=C1C(C1=C(O)c2ccccc2C(=O)C1=O)c1ccc(Cl)cc1` yielded a TGI of 57.7 µM.
Consider `C=C(C)[C@@H]1CC[C@]2(COCCCN)CC[C@]3(C)[C@H](CC[C@@H]4[C@@](C)(CCCNCCCN)[C@H](C(=C)C)CC[C@]43C)[C@@H]12`, for which the GI50 is 1.7 µM and the TGI turned out to be 3.25 µM.
For `O=C(O)CSCCc1ccccc1`, the TGI is greater than 100 µM.
In turn, `O=NNc1ccc2ccccc2n1` yielded a TGI greater than 100 µM.
With `O=C1NC(=S)S/C1=C/c1ccc2c(c1)OCO2`, the GI50 is 82.1 µM and the TGI is greater than 100 µM.
Molecule `O=C(O)CCCc1ccc2ccc3ccccc3c2c1` came in with a TGI greater than 100 µM.
Same read-out and setting: under `CN(C)Cc1cc(C(F)(F)F)ccc1C(O)(c1ccccc1)c1ccccc1` stands 36 µM.
In turn, `CSC(SC)(C(=O)O)c1cc(-c2c(Cl)cccc2Cl)no1` came in with a TGI greater than 100 µM.

The test system of the next assay is SK-MEL-2 melanoma. The assay can be described thus: inhibition of tumour cell growth, NCI panel, 48 h.
On to `CCN1C(=O)c2ccc3c4c(ccc(c24)C1=O)C(=O)N(CCCNCc1ccccc1OC)C3=O`, for which the GI50 was 1.55 µM and the TGI came to 3.48 µM.
With `O=C(/C=C/c1ccccc1)Nc1ncc(Cc2ccccc2Cl)s1`, the GI50 was 1.25 µM and the TGI was greater than 100 µM.
Take `CN(c1ccc(NC(=O)Nc2c(Cl)cccc2Cl)cc1)c1ccnc(Nc2cccc(CS(C)(=O)=O)c2)n1`: the GI50 is 5 µM and the TGI turned out to be 11.9 µM.
